This note sets out measurements from US10793551B2, “Benzimidazole-indole inhibitors of Mnk1 and Mnk2” (eFFECTOR Therapeutics, Inc., priority 2017, dated 2020).

For the assay, the target named is T1, MNK.
T1 construct: 10 nM recombinant MNK1 (Life Technologies, PR9138A)
Put plainly: MNK Biochemical Enzymatic Assay (ADP-Glo kinase assay). Conditions: recombinant MNK1 (300 μM ATP) / MNK2 (10 μM ATP) described; table does not say which isoform; read-out: MNK Biochemical Enzymatic Assay (IC50) Potency. On the procedure:
Compounds are screened for MNK inhibition using the ADP-Glo kinase assay kit (Promega, catalogue No. V9101). All kinase reactions are performed in Reaction Buffer E (15 mM HEPES pH7.4, 20 mM NaCl, 1 mM EGTA, 10 mM MgCl2, 0.1 mg/ml BGG, and 0.02% Tween-20). Final MNK1 reactions contained 10 nM recombinant MNK1 (Life Technologies, PR9138A), 100 μM MNK substrate peptide Ac-TATKSGSTTKNR-NH2 (American Peptide Company), 300 μM ATP, and varying concentrations of the inhibitory compound of interest. Final MNK2 reactions contained 3 nM recombinant MNK2 (Life Technologies, PV5607), 50 μM MNK substrate peptide Ac-TATKSGSTTKNR-NH2 (American Peptide Company), 10 μM ATP, and varying concentrations of the inhibitory compound of interest. Final DMSO concentration in each reaction is 1%.
Kinase reactions are carried out in 96-well half-area white flat-bottom polystyrene plates in a final volume of 25 al. MNK1/2 enzymes are pre-incubated with compound and peptide substrate for 5 minutes prior to the addition of ATP. After the addition of ATP, kinase reactions are incubated at room temperature for 40 minutes. Reactions are subsequently stopped by the addition of 25 al of ADP-Glo Reagent and incubating for an additional 40 minutes. The final luminescent signal used for kinase activity readout is produced by the addition of 45 al of Kinase Detection Reagent (ADP-Glo kit, Promega) and incubating for 40 minutes. The luminescent signal is detected using a Victor 2 multilabel counter (Perkin Elmer) and the concentration of compound necessary to achieve inhibition of enzyme activity by 50% (IC50) is calculated using signals from an 8-point compound dilution series.
To this end, IC50 values of less than 1 μM are labeled as “+++”, from 1 to 10 μM are labeled as “++”, and from […] are labeled as “+”.
(In ADP-Glo the light output rises with the ADP produced.)

Each structure is given as a SMILES string.

The IC50 is the point on the concentration scale where inhibition reaches its midpoint. As to `CC(C)Cc1c(C(=O)N(C)C)ccc2c1ncn2-c1cc(N)ncn1` [Compound 11F, 1-(6-aminopyrimidin-4-yl)-4-isobutyl-N,N-dimethyl-1H-benzo[d]imidazole-5-carboxamide], the IC50 was in the range of 1 to 10 µM.
Take `CC(C)Cc1c(C(N)=O)ccc2c1ccn2-c1ncnc(N)c1Cl` [Compound 8F, 1-(6-amino-5-chloropyrimidin-4-yl)-4-isobutyl-1H-indole-5-carboxamide]: the IC50 lay within 10 to 100 µM.
With `CC(C)Cc1c(C(=O)N(C)C)ccc2c1ncn2-c1ncnc(N)c1Cl` [Compound 10F, 1-(6-amino-5-chloropyrimidin-4-yl)-4-isobutyl-N,N-dimethyl-1H-benzo[d]imidazole-5-carboxamide], the IC50 lay in the range of 1 to 10 µM.
`CC(C)Cc1c(C(N)=O)ccc2c(-c3ncnc(N)c3Cl)cn(C)c12` [Compound 9F, 3-(6-amino-5-chloropyrimidin-4-yl)-7-isobutyl-1-methyl-1H-indole-6-carboxamide]: the IC50 was under 1 µM.
Take `CC(C)Cc1c(C(N)=O)ccc2c1ncn2-c1ncnc(N)c1Cl` [Compound 13F, 1-(6-amino-5-chloropyrimidin-4-yl)-4-isobutyl-1H-benzo[d]imidazole-5-carboxamide]: the half-maximal inhibitory concentration (IC50) was 1 to 10 µM.
In the case of `CC(C)Cc1c(C(N)=O)ccc2c1cnn2-c1ncnc(N)c1Cl` [Compound 12F, 1-(6-amino-5-chloropyrimidin-4-yl)-4-isobutyl-1H-indazole-5-carboxamide], the IC50 was 1 to 10 µM.
